Here are results for nine molecules from ChEMBL document CHEMBL1159150, “Synthesis and anticonvulsant properties of BW A78U structurally-related compounds” (1995).

Molecules are shown by their SMILES. Activity calls are given as the source filed them. The calls are words filed in the database; no cut-off is given here.

In test [1] the test system is Rattus norvegicus. Kind of test: Percent of rats protected from tonic seizure by ip administration at a dose of 10 mg/kg for anticonvulsant activity. The class given is functional. Conditions: route intraperitoneal.
In test [2] the test system is Rattus norvegicus. Description: Percent of rats protected from tonic seizure by ip administration at a dose of 40 mg/kg for anticonvulsant activity. The class given is functional. As to conditions: route intraperitoneal.
The test system of test [3] is Rattus norvegicus. Kind of test: Anticonvulsant activity for tonic seizure by ip administration at a dose of 10 mg/kg; Inactive. It counts as functional, organism-based. Also noted: dose 10 mg/kg.
The test system of test [4] is Rattus norvegicus. Description: Anticonvulsant activity for tonic seizure by ip administration at a dose of 10 mg/kg. The class given is functional. As to conditions: route intraperitoneal, read-out: ID50 (the source's name).

With `Cc1nc(C(N)=O)c(CCc2ccccc2)s1`, the Protection turned out to be 30% with Rattus norvegicus [1] and 65% with Rattus norvegicus [2].

In the case of `CNc1nccn2c(Cc3ccccc3)nnc12`, the figures for the Protection in the test on Rattus norvegicus [1] and in the test with Rattus norvegicus [2] were 65% and 100%, respectively.

As to `Cc1nc(CCc2ccccc2)c(C(N)=O)nc1C`, the Protection in the test on Rattus norvegicus [1] is 0%; with Rattus norvegicus [2] it was 30%.

Regarding `CNC(=O)c1cn(Cc2ccccc2)cn1`, the Protection with Rattus norvegicus [1] worked out at 20%; with Rattus norvegicus [2] it was 90%.

In the case of `NC(=O)c1cc(Cc2ccccc2)ccn1`, the Protection worked out at 50% in the test on Rattus norvegicus [1] and 100% in the test on Rattus norvegicus [2].

Regarding `CNc1cc(N(Cc2ccccc2)C(C)=O)ncn1`, the Protection with Rattus norvegicus [1] came out at 20%; with Rattus norvegicus [2], 55%.

On to `CNc1ncnc2c1cnn2Cc1ccccc1F`, for which, in the test with Rattus norvegicus [3], the ID50 result was “inactive”. Also, the figures for the Protection in the test with Rattus norvegicus [1] and in the test on Rattus norvegicus [2] were 0% and 65%, respectively.

For the molecule `CNc1ncnc2c1ncn2Cc1ccccc1F` [BW-A78U], in the test on Rattus norvegicus [4], the ED50 is 4 mg/kg. This molecule also returned a Protection with Rattus norvegicus [1] of 100%.

With `CNc1ncn(Cc2ccccc2F)c2ncnc1-2`, the ED50 in the test with Rattus norvegicus [4] came to 10 mg/kg. Moreover, the figures for the Protection in the test on Rattus norvegicus [1] and in the test on Rattus norvegicus [2] were 50% and 100%, respectively.
